According to patent US12077503B2, “Substituted cyclic amides and their use as herbicides” (FMC CORPORATION, priority 2015, dated 2024):

What was measured:
Assay type in all cases: in vivo
Kochia (Kochia scoparia) [1] = experiment: Test A preemergence; settings: Bassia scoparia, pre-emergence, 240 h, 0 to 100 scale where 0 is no effect and 100 is complete control, read-out: Kochia plant response rating; for pest or weed control at 31 g/ha: 31 g ai/ha, Preemergence; for pest or weed control at 125 g/ha: 125 g ai/ha, preemergence, visual injury rating, approximately 10 d
Procedure, shortened: (§1)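 In a loam soil and sand blend, planted seeds got a preemergence directed soil spray, and young plants at the one- to two-leaf stage, 2–10 cm high, got a postemergence application; ~10 d greenhouse hold; injury rated visually, 0 = none, 100 = complete control.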

[2] = system: barnyardgrass (Echinochloa crus-galli); experiment: Test A preemergence; settings: Echinochloa crus-galli, pre-emergence, 240 h, 0 to 100 scale where 0 is no effect and 100 is complete control, read-out: Barnyardgrass plant response rating; for pest or weed control at 31 g/ha: 31 g ai/ha, Preemergence; for pest or weed control at 125 g/ha: 125 g ai/ha, preemergence, visual injury rating, approximately 10 d
Procedure, shortened: as §1

[3] = system: giant foxtail (Setaria faberii); experiment: Test A preemergence; settings: Setaria faberi, pre-emergence, 240 h, 0 to 100 scale where 0 is no effect and 100 is complete control, read-out: Foxtail, Giant plant response rating; for pest or weed control at 31 g/ha: 31 g ai/ha, Preemergence; for pest or weed control at 125 g/ha: 125 g ai/ha, preemergence, visual injury rating, approximately 10 d
Procedure, shortened: as §1

[4] = system: pigweed (Amaranthus retroflexus); experiment: Test A preemergence; settings: Amaranthus retroflexus, pre-emergence, 240 h, 0 to 100 scale where 0 is no effect and 100 is complete control, read-out: Pigweed plant response rating; for pest or weed control at 31 g/ha: 31 g ai/ha, Preemergence; for pest or weed control at 125 g/ha: 125 g ai/ha, preemergence, visual injury rating, approximately 10 d
[5] = system: ragweed (common ragweed, Ambrosia elatior); experiment: Test A preemergence; settings: Ambrosia artemisiifolia, pre-emergence, 240 h, 0 to 100 scale where 0 is no effect and 100 is complete control, read-out: Ragweed plant response rating; for pest or weed control at 31 g/ha: 31 g ai/ha, Preemergence; for pest or weed control at 125 g/ha: 125 g ai/ha, preemergence, visual injury rating, approximately 10 d
Procedure, shortened: as §1

[6] = system: ryegrass, Italian (Italian ryegrass, Lolium multiflorum); experiment: Test A preemergence; settings: Lolium multiflorum, pre-emergence, 240 h, 0 to 100 scale where 0 is no effect and 100 is complete control, read-out: Ryegrass, Italian plant response rating; for pest or weed control at 31 g/ha: 31 g ai/ha, Preemergence; for pest or weed control at 125 g/ha: 125 g ai/ha, preemergence, visual injury rating, approximately 10 d
Procedure, shortened: as §1

[7] = system: Galium (catchweed bedstraw, Galium aparine); experiment: Test A postemergence; settings: Galium, post-emergence, 240 h, Postemergence, read-out: Galium plant response rating (0 to 100 scale); for pest or weed control at 125 g/ha: 125 g ai/ha, visual rating about 10 d after treatment; for pest or weed control at 31 g/ha: 31 g ai/ha, 0 is no effect, 100 is complete control
Procedure, shortened: as §1

Kochia (Kochia scoparia) [8] = experiment: Test A postemergence; settings: Bassia scoparia, post-emergence, 240 h, Postemergence, read-out: Kochia plant response rating (0 to 100 scale); for pest or weed control at 125 g/ha: 125 g ai/ha, visual rating about 10 d after treatment; for pest or weed control at 31 g/ha: 31 g ai/ha, 0 is no effect, 100 is complete control
Procedure, shortened: as §1

[9] = system: barnyardgrass (Echinochloa crus-galli); experiment: Test A postemergence; settings: Echinochloa crus-galli, post-emergence, 240 h, Postemergence; for pest or weed control at 125 g/ha: 125 g ai/ha, visual rating about 10 d after treatment, read-out: Barnyardgrass plant response rating (0 to 100 scale, 0 no effect, 100 complete control); for pest or weed control at 31 g/ha: 31 g ai/ha, 0 is no effect, 100 is complete control, read-out: Barnyardgrass plant response rating (0 to 100 scale)
Procedure, shortened: as §1

[10] = system: blackgrass (Alopecurus myosuroides); experiment: Test A postemergence; settings: Alopecurus myosuroides, post-emergence, 240 h, Postemergence, read-out: Blackgrass plant response rating (0 to 100 scale); for pest or weed control at 125 g/ha: 125 g ai/ha, visual rating about 10 d after treatment; for pest or weed control at 31 g/ha: 31 g ai/ha, 0 is no effect, 100 is complete control
Procedure, shortened: as §1

corn (Zea mays) = experiment: Test A postemergence; settings: Zea mays, post-emergence, 240 h, Postemergence, read-out: Corn plant response rating (0 to 100 scale); for plant injury at 125 g/ha: 125 g ai/ha, visual rating about 10 d after treatment; for plant injury at 31 g/ha: 31 g ai/ha, 0 is no effect, 100 is complete control
Procedure, shortened: as §1

[11] = system: giant foxtail (Setaria faberii); experiment: Test A postemergence; settings: Setaria faberi, post-emergence, 240 h, Postemergence, read-out: Foxtail, Giant plant response rating (0 to 100 scale); for pest or weed control at 125 g/ha: 125 g ai/ha, visual rating about 10 d after treatment; for pest or weed control at 31 g/ha: 31 g ai/ha, 0 is no effect, 100 is complete control
Procedure, shortened: as §1

[12] = system: pigweed (Amaranthus retroflexus); experiment: Test A postemergence; settings: Amaranthus retroflexus, post-emergence, 240 h, Postemergence, read-out: Pigweed plant response rating (0 to 100 scale); for pest or weed control at 125 g/ha: 125 g ai/ha, visual rating about 10 d after treatment; for pest or weed control at 31 g/ha: 31 g ai/ha, 0 is no effect, 100 is complete control
Procedure, shortened: as §1

[13] = system: ragweed (common ragweed, Ambrosia elatior); experiment: Test A postemergence; settings: Ambrosia artemisiifolia, post-emergence, 240 h, Postemergence, read-out: Ragweed plant response rating (0 to 100 scale); for pest or weed control at 125 g/ha: 125 g ai/ha, visual rating about 10 d after treatment; for pest or weed control at 31 g/ha: 31 g ai/ha, 0 is no effect, 100 is complete control
Procedure, shortened: as §1

[14] = system: ryegrass, Italian (Italian ryegrass, Lolium multiflorum); experiment: Test A postemergence; settings: Lolium multiflorum, post-emergence, 240 h, Postemergence, read-out: Ryegrass, Italian plant response rating (0 to 100 scale); for pest or weed control at 125 g/ha: 125 g ai/ha, visual rating about 10 d after treatment; for pest or weed control at 31 g/ha: 31 g ai/ha, 0 is no effect, 100 is complete control
Procedure, shortened: as §1

[15] = system: wheat (Triticum aestivum); experiment: Test A postemergence; settings: Triticum aestivum, post-emergence, 240 h, Postemergence, read-out: Wheat plant response rating (0 to 100 scale); for plant injury at 125 g/ha: 125 g ai/ha, visual rating about 10 d after treatment; for plant injury at 31 g/ha: 31 g ai/ha, 0 is no effect, 100 is complete control
Procedure, shortened: as §1

[16] = system: barnyardgrass (Echinochloa crus-galli); experiment: Test B flooded paddy test; settings: Echinochloa crus-galli, 250 g ai/ha, Flood; 0 to 100 scale where 0 is no effect and 100 is complete control; read-out: Barnyardgrass plant response rating
Procedure, shortened: (§2)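 Evaluation by eye, against controls, occurred 13–15 d post-treatment in a greenhouse, using a 0 (no effect) to 100 (complete control) scale. Application was into the paddy water, 3 cm deep over the soil, on 2-leaf plants.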

[17] = system: ducksalad (Heteranthera limosa); experiment: Test B flooded paddy test; settings: Heteranthera limosa, 250 g ai/ha, Flood; 0 to 100 scale where 0 is no effect and 100 is complete control; read-out: Ducksalad plant response rating
Procedure, shortened: as §2

rice (Oryra sativa) = experiment: Test B flooded paddy test; settings: Oryza sativa, 250 g ai/ha, Flood; 0 to 100 scale where 0 is no effect and 100 is complete control; read-out: Rice plant response rating
Procedure, shortened: as §2

[18] = system: sedge, umbrella (small-flower umbrella sedge, Cyperus difformis); experiment: Test B flooded paddy test; settings: Cyperus difformis, 250 g ai/ha, Flood; 0 to 100 scale where 0 is no effect and 100 is complete control; read-out: Sedge, Umbrella plant response rating
Procedure, shortened: as §2

Compound	pest or weed control at 31 g/ha (Kochia (Kochia scoparia) [1]) [%]	pest or weed control at 125 g/ha (Kochia (Kochia scoparia) [1]) [%]	pest or weed control at 31 g/ha [2] [%]	pest or weed control at 125 g/ha [2] [%]	pest or weed control at 31 g/ha [3] [%]	pest or weed control at 125 g/ha [3] [%]	pest or weed control at 31 g/ha [4] [%]	pest or weed control at 125 g/ha [4] [%]	pest or weed control at 31 g/ha [5] [%]	pest or weed control at 125 g/ha [5] [%]	pest or weed control at 31 g/ha [6] [%]	pest or weed control at 125 g/ha [6] [%]	pest or weed control at 125 g/ha [7] [%]	pest or weed control at 31 g/ha [7] [%]	pest or weed control at 125 g/ha (Kochia (Kochia scoparia) [8]) [%]	pest or weed control at 31 g/ha (Kochia (Kochia scoparia) [8]) [%]	pest or weed control at 125 g/ha [9] [%]	pest or weed control at 31 g/ha [9] [%]	pest or weed control at 125 g/ha [10] [%]	pest or weed control at 31 g/ha [10] [%]	further results
CN1C[C@H](c2cccc(C#N)c2)[C@@H](C(=O)Nc2cccc(F)c2F)C1=O [Compound 1286]	0	60	100	100	100	100	0	20	0	50	20	60	40	20	30	0	90	90	40	0	plant injury at 125 g/ha (corn (Zea mays)): 80%; plant injury at 31 g/ha (corn (Zea mays)): 20%; pest or weed control at 125 g/ha [11]: 90%; pest or weed control at 31 g/ha [11]: 70%; pest or weed control at 125 g/ha [12]: 20%; pest or weed control at 31 g/ha [12]: 0%; pest or weed control at 125 g/ha [13]: 0%; pest or weed control at 31 g/ha [13]: 0%; pest or weed control at 125 g/ha [14]: 0%; pest or weed control at 31 g/ha [14]: 0%; plant injury at 125 g/ha [15]: 0%; plant injury at 31 g/ha [15]: 0%; pest or weed control at 250 g/ha [16]: 70%; pest or weed control at 250 g/ha [17]: 95%; pest or weed control at 250 g/ha (rice (Oryra sativa)): 0%; pest or weed control at 250 g/ha [18]: 0%
Cc1ccc([C@H]2CN(C)C(=O)[C@@H]2C(=O)Nc2ccccc2)cc1 [Compound 1291]	0	40	100	100	100	100	0	100	0	0	0	20	20	0	0	0	90	70	0	0	plant injury at 125 g/ha (corn (Zea mays)): 30%; plant injury at 31 g/ha (corn (Zea mays)): 0%; pest or weed control at 125 g/ha [11]: 80%; pest or weed control at 31 g/ha [11]: 70%; pest or weed control at 125 g/ha [12]: 0%; pest or weed control at 31 g/ha [12]: 0%; pest or weed control at 125 g/ha [13]: 0%; pest or weed control at 31 g/ha [13]: 0%; pest or weed control at 125 g/ha [14]: 0%; pest or weed control at 31 g/ha [14]: 0%; plant injury at 125 g/ha [15]: 30%; plant injury at 31 g/ha [15]: 0%; pest or weed control at 250 g/ha [16]: 90%; pest or weed control at 250 g/ha [17]: 100%; pest or weed control at 250 g/ha (rice (Oryra sativa)): 30%; pest or weed control at 250 g/ha [18]: 0%
